Earlier results, collected in patent US6346511B1, “Pharmaceutical composition comprising cyclosporin” (Panacea Biotec Limited, priority 1997, dated 2002).

System: normal epithelial tissue and Peyer's patch tissue of guinea pigs
Settings: in vitro, compared to the commercially available drinking solution

factor by which absorption of Cyclosporine was raised: 5-6
Substance: Choleic acid
